≈ marks a conversion by molar mass, not a printed value. Read-outs that look alike come from different tables or passages of the source. Where a SMILES comes first, the peptide text is derived from it. Where no end group is shown, it is not given here. [ ]: non-standard residue; d: D form. The star is where a group is joined. Oleoyl = CCCCCCCC/C=C\CCCCCCCC(=O)*; Stearoyl = CCCCCCCCCCCCCCCCCC(=O)*; Palmitoyl = CCCCCCCCCCCCCCCC(=O)*; Myristoyl = CCCCCCCCCCCCCC(=O)*; Undecanoyl = CCCCCCCCCCC(=O)*; Nonanoyl = CCCCCCCCC(=O)*; Heptanoyl = CCCCCCC(=O)*; Octanoyl = CCCCCCCC(=O)*; Cap = not defined here
How the values were obtained:
[1] = tested on: Candida albicans; type: cell-based
Procedure: (§1) MICs (minimal inhibitory concentrations) were determined for the hexapeptides of interest using a slightly modified version of the NCCLS (National Committee for Clinical Laboratory Standards) broth microdilution method as described previously (Steinberg et al., AAC 41: 1738, 1997). Briefly, antimicrobial agents were prepared as 10× concentrates in the most appropriate solvent. For the hexapeptide, 0.01% acetic acid containing 0.2% bovine serum albumin as a carrier protein was used. Inocula were prepared by resuspending colonies from a BAP (please spell out this term) in medium and adjusting the suspension to match that of a 0.5 McFarland standard. The suspension was diluted into fresh medium (as recommended by NCCLS for the organism) to give 2×10^5 to 7×10^5 CFU/ml for bacteria or 2×10^3 to 7×10^3 CFU/ml for Candida. After dispensing 100 μl aliquots of the microbial suspension into each well of a 96-well polypropylene microtiter plate, 11 μl of test compound was added. The MIC was defined as the lowest concentration of drug which prevented visible turbidity after 16 to 20 hours (bacteria) or 46 to 50 hours (Candida) at 35° C.

[2] = tested on: Pseudomonas aeruginosa; type: cell-based; design: MIC, lipid length SAR: unit not given here; settings: for MIC, lipid length SAR: P.aeruginosa
Procedure: as §1

[3] = tested on: Salmonella typhimurium 14028S; assay: MIC, broth microdilution, S. typhimurium; type: cell-based; design: unit not given here; settings: for MIC, lipid length SAR: S.typhimurium; for Anti-microbial activity (MIC): S. typhimurium 14028S
Procedure: as §1

[4] = tested on: Escherichia coli UB1005; assay: MIC, broth microdilution, E. coli; type: cell-based; design: unit not given here
Procedure: as §1

[5] = tested on: P. acnes; assay: Activity against extended panel of P. acnes; type: cell-based; design: unit not given here
From the text: A very promising application for short bioactive peptides is for dermatological indications such as acne.

[6] = tested on: MRSA; assay: Kill curve in 10% sheep serum-phosphate buffer against MRSA; type: cell-based, S. aureus; settings: 10% serum / biological environments
[7] = T.W. Candida #184, azole resistant clinical isolate
[8] = T.W. Candida #185 (CDR1,2), azole resistant clinical isolate
[9] = T.W. Candida #186 (CDR1,2), azole resistant clinical isolate
[10] = T.W. Candida #187 (CDR1,2), azole resistant clinical isolate
[11] = T.W. Candida #192 (CDR1,2), azole resistant clinical isolate
[12] = T.W. Candida #193, azole resistant clinical isolate
[13] = T.W. Candida #194, azole resistant clinical isolate
[14] = T.W. Candida #195, azole resistant clinical isolate
[15] = T.W. Candida #196 (CDR1,2), azole resistant clinical isolate
[16] = T.W. Candida #197, azole resistant clinical isolate
[17] = T.W. Candida #198, azole resistant clinical isolate
[18] = T.W. Candida #199 (CDR1,2), azole resistant clinical isolate

CC(=O)N1CCN(c2ccc(OCC3COC(Cn4ccnc4)(c4ccc(Cl)cc4Cl)O3)cc2)CC1 (centres unmarked) [Ketoconazole, reference compound]
MIC [1, 7]: 64 mg/L (≈ 120 µM)
MIC [1, 8]: 8 mg/L (≈ 15.1 µM)
MIC [1, 9]: 8 mg/L (≈ 15.1 µM)
MIC [1, 10]: 16 mg/L (≈ 30.1 µM)
MIC [1, 11]: 32 mg/L (≈ 60.2 µM)
MIC [1, 12]: 8 mg/L (≈ 15.1 µM)
MIC [1, 13]: 16 mg/L (≈ 30.1 µM)
MIC [1, 14]: 128 mg/L (≈ 241 µM)
MIC [1, 15]: 32 mg/L (≈ 60.2 µM)
MIC [1, 16]: > 256 mg/L
MIC [1, 17]: 1 mg/L (≈ 1.88 µM)
MIC [1, 18]: 16 mg/L (≈ 30.1 µM)

Clc1ccc(COC(Cn2ccnc2)c2ccc(Cl)cc2Cl)c(Cl)c1 (centres unmarked) [Miconazole, reference compound]
MIC [1, 7]: > 256 mg/L
MIC [1, 8]: > 256 mg/L
MIC [1, 9]: > 256 mg/L
MIC [1, 10]: > 256 mg/L
MIC [1, 11]: > 256 mg/L
MIC [1, 12]: > 256 mg/L
MIC [1, 13]: > 256 mg/L
MIC [1, 14]: > 256 mg/L
MIC [1, 15]: 128 mg/L (≈ 308 µM)
MIC [1, 16]: > 256 mg/L
MIC [1, 17]: 128 mg/L (≈ 308 µM)
MIC [1, 18]: > 256 mg/L

CCCCCCCCC(=O)N[C@@H](CCCCN)C(=O)N[C@@H](Cc1ccccc1)C(=O)N[C@@H](CCCCN)C(=O)N[C@@H](Cc1c[nH]c2ccccc12)C(=O)N1CCC[C@H]1C(=O)N[C@@H](Cc1c[nH]c2ccccc12)C(N)=O [compound 70] (Nonanoyl-KFKWPW-NH2)
Minimal Inhibitory Concentrations (Mics) [2]: 32-64 Mg/Ml

CCCCCCCCCCC(=O)N[C@@H](CCCCN)C(=O)N[C@@H](Cc1ccccc1)C(=O)N[C@@H](CCCCN)C(=O)N[C@@H](Cc1c[nH]c2ccccc12)C(=O)N1CCC[C@H]1C(=O)N[C@@H](Cc1c[nH]c2ccccc12)C(N)=O [compound 79] (Undecanoyl-KFKWPW-NH2)
Minimal Inhibitory Concentrations (Mics) [2]: 8-16 Mg/Ml
Minimal Inhibitory Concentrations (Mics) [1]: 4-8 Mg/Ml

Cap-KFKWPW-NH2 (not fully specified; printed as Cap-KFKWPW-NH2; reading uncertain) [SEQ ID NO: 71]
MIC, lipid length SAR [2]: >128
MIC, lipid length SAR [3]: 128

FAKLAK-NH2 [SEQ ID NO: 20]
Anti-microbial activity (MIC) [4]: >128
Anti-microbial activity (MIC) [3]: >128

FALKKL-NH2 [SEQ ID NO: 14]
Anti-microbial activity (MIC) [4]: >128
Anti-microbial activity (MIC) [3]: >128

FKFKPV-NH2 [SEQ ID NO: 12]
Anti-microbial activity (MIC) [4]: >128
Anti-microbial activity (MIC) [3]: >128

FKLAPW-NH2 [SEQ ID NO: 16]
Anti-microbial activity (MIC) [4]: >128
Anti-microbial activity (MIC) [3]: >128

FPWKFK-NH2 [SEQ ID NO: 34]
Anti-microbial activity (MIC) [4]: >128
Anti-microbial activity (MIC) [3]: >128

FRHFRW-NH2 [SEQ ID NO: 18]
Anti-microbial activity (MIC) [4]: >128
Anti-microbial activity (MIC) [3]: >128

H-RWRWPW-NH2 [compound 4]
Minimal Inhibitory Concentrations (Mics) [1]: 64-128 Mg/Ml

Hep-KFKWPW-NH2 (Heptanoyl-KFKWPW-NH2; SMILES CCCCCCC(=O)N[C@@H](CCCCN)C(=O)N[C@@H](Cc1ccccc1)C(=O)N[C@@H](CCCCN)C(=O)N[C@@H](Cc1c[nH]c2ccccc12)C(=O)N1CCC[C@H]1C(=O)N[C@@H](Cc1c[nH]c2ccccc12)C(N)=O) [SEQ ID NO: 69]
MIC, lipid length SAR [2]: 128
MIC, lipid length SAR [3]: 128

KFFWPF-NH2 [SEQ ID NO: 36]
Anti-microbial activity (MIC) [4]: >128
Anti-microbial activity (MIC) [3]: >128

KFKSFK-NH2 [SEQ ID NO: 21]
Anti-microbial activity (MIC) [4]: >128
Anti-microbial activity (MIC) [3]: >128

KFVWPW-NH2 [SEQ ID NO: 32]
Anti-microbial activity (MIC) [4]: >128
Anti-microbial activity (MIC) [3]: >128

KLAKLL-NH2 [SEQ ID NO: 27]
Anti-microbial activity (MIC) [4]: >128
Anti-microbial activity (MIC) [3]: >128

KPVKFK-NH2 [SEQ ID NO: 31]
Anti-microbial activity (MIC) [4]: >128
Anti-microbial activity (MIC) [3]: >128

KPVWPF-NH2 [SEQ ID NO: 35]
Anti-microbial activity (MIC) [4]: >128
Anti-microbial activity (MIC) [3]: >128

KPVWPW-NH2 [SEQ ID NO: 30]
Anti-microbial activity (MIC) [4]: >128
Anti-microbial activity (MIC) [3]: >128

KPWKFK-NH2 [SEQ ID NO: 29]
Anti-microbial activity (MIC) [4]: >128
Anti-microbial activity (MIC) [3]: >128

KWKFKF-NH2 [SEQ ID NO: 23]
Anti-microbial activity (MIC) [4]: >128
Anti-microbial activity (MIC) [3]: >128

KWKKLA-NH2 [SEQ ID NO: 22]
Anti-microbial activity (MIC) [4]: >128
Anti-microbial activity (MIC) [3]: >128

KWKKPV-NH2 [SEQ ID NO: 17]
Anti-microbial activity (MIC) [4]: >128
Anti-microbial activity (MIC) [3]: >128

KWKVFK-NH2 [SEQ ID NO: 24]
Anti-microbial activity (MIC) [4]: >128
Anti-microbial activity (MIC) [3]: >128

LAKLAK-NH2 [SEQ ID NO: 28]
Anti-microbial activity (MIC) [4]: >128
Anti-microbial activity (MIC) [3]: >128

LLKWPW-NH2 [SEQ ID NO: 33]
Anti-microbial activity (MIC) [4]: >128
Anti-microbial activity (MIC) [3]: >128

Myr-KFKWPW-NH2 (Myristoyl-KFKWPW-NH2; SMILES CCCCCCCCCCCCCC(=O)N[C@@H](CCCCN)C(=O)N[C@@H](Cc1ccccc1)C(=O)N[C@@H](CCCCN)C(=O)N[C@@H](Cc1c[nH]c2ccccc12)C(=O)N1CCC[C@H]1C(=O)N[C@@H](Cc1c[nH]c2ccccc12)C(N)=O) [SEQ ID NO: 77]
MIC, lipid length SAR [2]: 64-128
MIC, lipid length SAR [3]: >128

Non-KFKWPW-NH2 (Nonanoyl-KFKWPW-NH2; SMILES CCCCCCCCC(=O)N[C@@H](CCCCN)C(=O)N[C@@H](Cc1ccccc1)C(=O)N[C@@H](CCCCN)C(=O)N[C@@H](Cc1c[nH]c2ccccc12)C(=O)N1CCC[C@H]1C(=O)N[C@@H](Cc1c[nH]c2ccccc12)C(N)=O) [SEQ ID NO: 70]
MIC, lipid length SAR [2]: 32-64
MIC, lipid length SAR [3]: 16

OIe-KFKWPW-NH2 (Oleoyl-KFKWPW-NH2; SMILES CCCCCCCC/C=C\CCCCCCCC(=O)N[C@@H](CCCCN)C(=O)N[C@@H](Cc1ccccc1)C(=O)N[C@@H](CCCCN)C(=O)N[C@@H](Cc1c[nH]c2ccccc12)C(=O)N1CCC[C@H]1C(=O)N[C@@H](Cc1c[nH]c2ccccc12)C(N)=O) [SEQ ID NO: 75]
MIC, lipid length SAR [2]: >128
MIC, lipid length SAR [3]: >128

Oct-kfkwpw-HN2 (Octanoyl-[dK][dF][dK][dW][dP][dW]-NH2; SMILES CCCCCCCC(=O)N[C@H](CCCCN)C(=O)N[C@H](Cc1ccccc1)C(=O)N[C@H](CCCCN)C(=O)N[C@H](Cc1c[nH]c2ccccc12)C(=O)N1CCC[C@@H]1C(=O)N[C@H](Cc1c[nH]c2ccccc12)C(N)=O) [SEQ ID NO: 81]
Activity (MIC) against P. acnes ([5]; ATCC 6921): 4
Activity (MIC) against P. acnes ([5]; ATCC 6922): 8
Activity (MIC) against P. acnes ([5]; ATCC 6923): 8
Activity (MIC) against P. acnes ([5]; ATCC 11828): 8
Activity (MIC) against P. acnes ([5]; ATCC 12930): 2
Activity (MIC) against P. acnes ([5]; ATCC 25746): 0.25
Activity (MIC) against P. acnes ([5]; ATCC 29399): 8
Activity (MIC) against P. acnes ([5]; ATCC 33179): 16
Activity (MIC) against P. acnes ([5]; ATCC 49929): 0.125
Activity (MIC) against P. acnes ([5]; ATCC 51277): 8

Pal-KFKWPW-NH2 (Palmitoyl-KFKWPW-NH2; SMILES CCCCCCCCCCCCCCCC(=O)N[C@@H](CCCCN)C(=O)N[C@@H](Cc1ccccc1)C(=O)N[C@@H](CCCCN)C(=O)N[C@@H](Cc1c[nH]c2ccccc12)C(=O)N1CCC[C@H]1C(=O)N[C@@H](Cc1c[nH]c2ccccc12)C(N)=O) [SEQ ID NO: 73]
MIC, lipid length SAR [2]: >128
MIC, lipid length SAR [3]: >128

RKTWPW-NH2 [SEQ ID NO: 15]
Anti-microbial activity (MIC) [4]: >128
Anti-microbial activity (MIC) [3]: >128

SEQ ID NO:56 (Octanoyl-KWKWFW-NH2; SMILES CCCCCCCC(=O)N[C@@H](CCCCN)C(=O)N[C@@H](Cc1c[nH]c2ccccc12)C(=O)N[C@@H](CCCCN)C(=O)N[C@@H](Cc1c[nH]c2ccccc12)C(=O)N[C@@H](Cc1ccccc1)C(=O)N[C@@H](Cc1c[nH]c2ccccc12)C(N)=O)
ability to kill S. aureus in serum (in words) [6]: does not perform well in biological environments

Ste-KFKWPW-NH2 (Stearoyl-KFKWPW-NH2; SMILES CCCCCCCCCCCCCCCCCC(=O)N[C@@H](CCCCN)C(=O)N[C@@H](Cc1ccccc1)C(=O)N[C@@H](CCCCN)C(=O)N[C@@H](Cc1c[nH]c2ccccc12)C(=O)N1CCC[C@H]1C(=O)N[C@@H](Cc1c[nH]c2ccccc12)C(N)=O) [SEQ ID NO: 74]
MIC, lipid length SAR [2]: >128
MIC, lipid length SAR [3]: >128

VAKKWK-NH2 [SEQ ID NO: 25]
Anti-microbial activity (MIC) [4]: >128
Anti-microbial activity (MIC) [3]: >128

VAKLAK-NH2 [SEQ ID NO: 19]
Anti-microbial activity (MIC) [4]: >128
Anti-microbial activity (MIC) [3]: >128

VKVKPV-NH2 [SEQ ID NO: 13]
Anti-microbial activity (MIC) [4]: >128
Anti-microbial activity (MIC) [3]: >128

From US7407940B2, “Antimicrobial hexapeptides” (Helix BioMedix Inc., priority 2005, dated 2008)
